Patent publication US11447487B2, “Spiroheptanyl hydantoins as rock inhibitors” (BRISTOL-MYERS SQUIBB COMPANY, priority 2017, dated 2022)

tested on: spontaneously hypertensive rat, renal hypertensive rat and deoxycortisone acetate salt hypertensive rat models; assay: not given; conditions: control rats; cited from earlier work

In the case of C[C@@H](N)[C@H]1CC[C@H](C(=O)Nc2ccncc2)CC1 [Example Y-27632, Y-27632], the “blood pressure in control rats” value is listed as “only a minor effect on blood pressure”.

same assay, conditions: three rat models of hypertension; cited from earlier work

In the case of C[C@@H](N)[C@H]1CC[C@H](C(=O)Nc2ccncc2)CC1 [Example Y-27632, Y-27632], the blood pressure is given as “significantly decrease blood pressure”.

tested on: neointimal formation in rats; assay: not given; conditions: cited from earlier work

In the case of C[C@@H](N)[C@H]1CC[C@H](C(=O)Nc2ccncc2)CC1 [Example Y-27632, Y-27632], the neointimal formation is given as “inhibited neointimal formation”.

tested on: Dahl salt-sensitive rats; assay: not given; conditions: rat, in vivo; cited from earlier work

For C[C@@H](N)[C@H]1CC[C@H](C(=O)Nc2ccncc2)CC1 [Example Y-27632, Y-27632], the “ventricular hypertrophy, fibrosis and function” value is listed as “improve ventricular hypertrophy, fibrosis and function”.

target: ROCK2 (Homo sapiens (Human), UniProt O75116); assay: ROCK assay (Caliper LABCHIP peptide phosphorylation); assay type: biochemical; conditions: 5 μM ATP, 1.5 μM peptide substrate
Sequence (O75116 whole entry, species assumed): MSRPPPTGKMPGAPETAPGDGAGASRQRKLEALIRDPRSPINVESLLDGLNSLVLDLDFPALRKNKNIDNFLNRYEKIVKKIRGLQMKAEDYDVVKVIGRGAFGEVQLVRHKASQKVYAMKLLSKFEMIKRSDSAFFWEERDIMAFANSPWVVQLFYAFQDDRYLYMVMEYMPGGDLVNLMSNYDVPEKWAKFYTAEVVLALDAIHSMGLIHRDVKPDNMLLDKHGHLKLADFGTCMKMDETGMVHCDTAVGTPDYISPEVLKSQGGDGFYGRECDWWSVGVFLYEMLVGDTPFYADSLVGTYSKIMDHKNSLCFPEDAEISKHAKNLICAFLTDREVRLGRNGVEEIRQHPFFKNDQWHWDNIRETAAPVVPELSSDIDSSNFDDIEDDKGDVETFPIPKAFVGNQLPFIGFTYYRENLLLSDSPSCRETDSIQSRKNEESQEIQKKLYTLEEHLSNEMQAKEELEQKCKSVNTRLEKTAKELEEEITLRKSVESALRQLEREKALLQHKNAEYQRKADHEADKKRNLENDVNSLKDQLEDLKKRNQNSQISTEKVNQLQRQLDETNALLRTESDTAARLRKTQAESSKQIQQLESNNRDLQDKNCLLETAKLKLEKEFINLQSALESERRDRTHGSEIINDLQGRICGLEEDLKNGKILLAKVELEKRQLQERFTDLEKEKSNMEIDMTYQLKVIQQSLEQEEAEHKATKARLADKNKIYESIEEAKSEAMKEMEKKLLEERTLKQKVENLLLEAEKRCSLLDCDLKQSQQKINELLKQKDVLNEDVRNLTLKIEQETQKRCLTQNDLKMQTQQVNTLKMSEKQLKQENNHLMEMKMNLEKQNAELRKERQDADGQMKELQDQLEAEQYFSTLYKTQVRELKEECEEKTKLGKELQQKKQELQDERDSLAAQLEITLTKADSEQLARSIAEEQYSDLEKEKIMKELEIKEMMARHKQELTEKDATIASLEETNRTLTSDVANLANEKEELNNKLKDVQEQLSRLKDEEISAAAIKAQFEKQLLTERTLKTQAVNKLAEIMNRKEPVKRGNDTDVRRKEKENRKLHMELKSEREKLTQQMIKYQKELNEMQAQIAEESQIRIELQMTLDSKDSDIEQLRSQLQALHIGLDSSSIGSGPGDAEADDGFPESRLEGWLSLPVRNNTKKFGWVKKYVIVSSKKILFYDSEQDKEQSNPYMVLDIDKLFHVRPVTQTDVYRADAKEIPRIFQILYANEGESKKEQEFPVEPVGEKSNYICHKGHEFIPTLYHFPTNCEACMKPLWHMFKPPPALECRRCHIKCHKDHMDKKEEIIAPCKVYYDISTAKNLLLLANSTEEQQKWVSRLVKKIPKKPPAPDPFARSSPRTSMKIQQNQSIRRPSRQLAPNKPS
Outline: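 Human ROCK2 reaction with 5 μM ATP and 1.5 μM FITC-labelled peptide substrate in 20 mM HEPES pH 7.5, 20 mM MgCl2, 4 mM DTT, DMSO <2%; stopped with EDTA. Phosphorylated and unphosphorylated peptide separated by microfluidic mobility shift; IC50 from dose-response curve fit.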

NC(=O)c1cccnc1O[C@H]1C[C@]2(C1)C[C@H](N1C(=O)CN(c3cccc(C(F)(F)F)c3)C1=O)C2 (some centres unmarked) [Example 82, 2-(((αR)-6-(2,5-dioxo-3-(3-(trifluoromethyl)phenyl)imidazolidin-1-yl)spiro[3.3]heptan-2-yl)oxy)nicotinamide] and NC(=O)c1cccnc1O[C@H]1C[C@]2(C1)C[C@H](N1C(=O)CN(c3ccc(C(F)(F)F)cc3)C1=O)C2 (some centres unmarked) [Example 87, 2-(((αR)-6-(2.5-dioxo-3-(4-(trifluoromethyl)phenyl)imidazolidin-1-yl)spiro[3.3]heptan-2-yl)oxy)nicotinamide] are the same in IC50: 5 nM for the first, 5 nM for the second.

First: NC(=O)c1cccnc1O[C@H]1C[C@]2(C1)C[C@H](N1C(=O)CN(c3ccc(Oc4ccccc4)cc3)C1=O)C2 (some centres unmarked) [Example 83, 2-(((αR)-6-(2,5-dioxo-3-(4-phenoxyphenyl)imidazolidin-1-yl)spiro[3.3]heptan-2-yl)oxy)nicotinamide]
Second: NC(=O)c1cccnc1O[C@H]1C[C@]2(C1)C[C@H](N1C(=O)CN(c3ccc(Cc4ccccc4)cc3)C1=O)C2 (some centres unmarked) [Example 84, 2-(((αR)-6-(3-(4-benzylphenyl)-2,5-dioxoimidazolidin-1-yl)spiro[3.3]heptan-2-yl)oxy)nicotinamide]
The IC50 of the first is 1.9-fold lower: 9 nM for the first, 17 nM for the second.

Going from NC(=O)c1cccnc1O[C@H]1C[C@]2(C1)C[C@H](N1C(=O)CN(c3cccc(F)c3)C1=O)C2 (some centres unmarked) [Example 85, 2-(((αR)-6-(3-(3-fluorophenyl)-2,5-dioxoimidazolidin-1-yl)spiro[3.3]heptan-2-yl)oxy)nicotinamide] to CS(=O)(=O)c1cccc(N2CC(=O)N([C@H]3C[C@@]4(C[C@H](Oc5ncccc5C(N)=O)C4)C3)C2=O)c1 (some centres unmarked) [Example 89, 2-(((αR)-6-(3-(3-(methylsulfonyl)phenyl)-2,5-dioxoimidazolidin-1-yl)spiro[3.3]heptan-2-yl)oxy)nicotinamide], the IC50 rises from 6 nM to 13 nM (2.2-fold). The first is the more potent here.

Compared with CC(C)(O)COc1cccc(N2CC(=O)N([C@H]3C[C@@]4(C[C@H](Oc5ncccc5C(N)=O)C4)C3)C2=O)c1 (some centres unmarked) [Example 88, 2-(((αR)-6-(3-(3-(2-hydroxy-2-methylpropoxy)phenyl)-2,5-dioxoimidazolidin-1-yl)spiro[3.3]heptan-2-yl)oxy)nicotinamide], CC(C)(CC1NC(=O)N([C@H]2C[C@@]3(C[C@H](Oc4ncccc4C(N)=O)C3)C2)C1=O)c1ccccc1 (some centres unmarked) [Example 94, 2-(((αR)-6-(2,5-dioxo-4-(2-phenyl-2-methylpropyl)imidazolidin-1-yl)spiro[3.3]heptan-2-yl)oxy)nicotinamide] is 2-fold lower in IC50: 55 nM for the first, 27 nM for the second.

Going from C/C(=C\c1ccccc1)CC1NC(=O)N([C@H]2C[C@@]3(C[C@H](Oc4ncccc4C(N)=O)C3)C2)C1=O (some centres unmarked) [Example 90, 2-(((αR)-6-(4-((E)-2-methyl-3-phenylallyl)-2,5-dioxoimidazolidin-1-yl)spiro[3.3]heptan-2-yl)oxy)nicotinamide] to CC(C[C@@H]1NC(=O)N([C@H]2C[C@@]3(C[C@H](Oc4ncccc4C(N)=O)C3)C2)C1=O)c1ccccc1 (stereo partly drawn) [Example 95, 2-(((αR)-6-((S)-2,5-dioxo-4-(2-phenyl-propyl)imidazolidin-1-yl)spiro[3.3]heptan-2-yl)oxy)nicotinamide], the IC50 falls from 21 nM to 6 nM (3.5-fold). The second is the more potent here.

Going from [H][C@]1(Oc2ncccc2C(N)=O)C[C@]2(C[C@@H](N3C(=O)NC(CC(C)Cc4ccccc4)C3=O)C2)C1 (stereo partly drawn) [Example 91, 2-(((aR)-6-(4-(2-methyl-3-phenylpropyl)-2,5-dioxoimidazolidin-1-yl)spiro[3.3]heptan-2-yl)oxy)nicotinamide] to CC(C[C@H]1NC(=O)N([C@H]2C[C@@]3(C[C@H](Oc4ncccc4C(N)=O)C3)C2)C1=O)c1ccccc1 (stereo partly drawn) [Example 96, 2-(((αR)-6-((R)-2,5-dioxo-4-(2-phenyl-propyl)imidazolidin-1-yl)spiro[3.3]heptan-2-yl)oxy)nicotinamide], the IC50 rises from 29 nM to 264 nM (9.1-fold).

First: C[C@H](C[C@@H]1NC(=O)N([C@H]2C[C@@]3(C[C@H](Oc4ncccc4C(N)=O)C3)C2)C1=O)C(F)(F)F (stereo partly drawn) [Example 92, 2-(((αR)-6-((S)-2,5-dioxo-4-((R)-3,3,3-trifluoro-2-methylpropyl)imidazolidin-1-yl)spiro[3.3]heptan-2-yl)oxy)nicotinamide]
Second: C[C@@H](C[C@@H]1NC(=O)N([C@H]2C[C@@]3(C[C@H](Oc4ncccc4C(N)=O)C3)C2)C1=O)C(F)(F)F (stereo partly drawn) [Example 93, 2-(((αR)-6-((S)-2,5-dioxo-4-((S)-3,3,3-trifluoro-2-methylpropyl)imidazolidin-1-yl)spiro[3.3]heptan-2-yl)oxy)nicotinamide]
The IC50 of the first is 1.5-fold lower: 6 nM for the first, 9 nM for the second. The first is the more potent here.

First: NC(=O)c1cccnc1O[C@H]1CC2(C1)C[C@H](N1C(=O)N[C@@H](CC3CCC(NC(=O)OCc4ccccc4)CC3)C1=O)C2 (some centres unmarked) [Example 97]
Second: [H][C@]1(Oc2ncccc2C(N)=O)C[C@@]2(C[C@H](N3C(=O)N[C@@H](C[C@H]4CC[C@H](NC(=O)c5ccccc5)CC4)C3=O)C2)C1 (some centres unmarked) [Example 100]
The IC50 of the first is 1.9-fold lower: 28 nM for the first, 52 nM for the second. The first is the more potent here.

Going from NC(=O)c1cccnc1O[C@H]1C[C@]2(C1)C[C@H](N1C(=O)NC(CC3CCN(C(=O)OCc4ccccc4)CC3)C1=O)C2 (some centres unmarked) [Example 98, 2-(((αR)-6-(2,5-dioxo-4-(N-benzyloxycarbonyl-piperidin-4-ylmethyl)imidazolidin-1-yl)spiro[3.3]heptan-2-yl)oxy)nicotinamide] to NC(=O)c1cccnc1O[C@H]1C[C@]2(C1)C[C@H](N1C(=O)NC(CC3CCN(C(=O)c4ccccc4)CC3)C1=O)C2 (some centres unmarked) [Example 101, 2-(((αR)-6-(2,5-dioxo-4-(N-benzoylpiperidin-4-ylmethyl)imidazolidin-1-yl)spiro[3.3]heptan-2-yl)oxy)nicotinamide], the IC50 rises from 52 nM to 146 nM (2.8-fold).

Compared with NC(=O)c1cccnc1O[C@H]1C[C@]2(C1)C[C@H](N1C(=O)NC(C[C@@H]3C[C@H]4CC[C@@H](C3)N4C(=O)OCc3ccccc3)C1=O)C2 (some centres unmarked) [Example 99, benzyl 3-((1-((αR)-6-((3-carbamoylpyridin-2-yl)oxy)spiro[3.3]heptan-2-yl)-2,5-dioxoimidazolidin-4-yl)methyl)-8-azabicyclo[3.2.1] octane-8-carboxylate], [H][C@]1(Oc2nc(OC)ccc2C(N)=O)C[C@]2(C[C@@H](N3C(=O)N[C@@H](CC(C)C(F)(F)F)C3=O)C2)C1 (some centres unmarked) [Example 102] is 130-fold lower in IC50: 659 nM for the first, 5 nM for the second.

tested on: IL-1 beta-induced coronary stenosis; assay: not given; conditions: long term treatment; cited from earlier work

For O=S(=O)(c1cccc2cnccc12)N1CCCNCC1 [fasudil], the coronary constrictive remodeling is listed as “promote a regression of coronary constrictive remodeling”.

In the case of O=S(=O)(c1cccc2cnccc12)N1CCCNCC1 [fasudil], the coronary stenosis is given as “progressively reduce coronary stenosis”.
